US11629136B1, “Substituted pyridine derivatives as SARM1 inhibitors” (Nura Bio, Inc., priority 2021, dated 2023)
Structures can show the parent of a compound that is named as a salt.

Molecular target: human SARM1(50-724) (Homo sapiens (Human), UniProt Q6SZW1)
Experiment: SARM1 NAD hydrolase biological assay (HPLC readout of NAD and NAM peak areas)
Type: biochemical
Settings: not given
Procedure: The reaction was incubated at room temperature for 60 minutes and quenched with 20 μL of 0.4% formic acid. […] Total run time for each sample was 4 minutes. The run was isocratic with 1.5% methanol in 40 mM ammonium acetate pH 6.0. Samples were run at a flow rate of 0.8 ml/min at 55° C. Peak areas of NAD and NAM were determined using OpenLAB CDS (Chem Station edition) software. For dose-response, the compound was diluted serially 1:3 in DMSO and added to the reaction starting at a final compound concentration of 100 μM in 1% DMSO.

Sequence of human SARM1(50-724) (Q6SZW1 50-724): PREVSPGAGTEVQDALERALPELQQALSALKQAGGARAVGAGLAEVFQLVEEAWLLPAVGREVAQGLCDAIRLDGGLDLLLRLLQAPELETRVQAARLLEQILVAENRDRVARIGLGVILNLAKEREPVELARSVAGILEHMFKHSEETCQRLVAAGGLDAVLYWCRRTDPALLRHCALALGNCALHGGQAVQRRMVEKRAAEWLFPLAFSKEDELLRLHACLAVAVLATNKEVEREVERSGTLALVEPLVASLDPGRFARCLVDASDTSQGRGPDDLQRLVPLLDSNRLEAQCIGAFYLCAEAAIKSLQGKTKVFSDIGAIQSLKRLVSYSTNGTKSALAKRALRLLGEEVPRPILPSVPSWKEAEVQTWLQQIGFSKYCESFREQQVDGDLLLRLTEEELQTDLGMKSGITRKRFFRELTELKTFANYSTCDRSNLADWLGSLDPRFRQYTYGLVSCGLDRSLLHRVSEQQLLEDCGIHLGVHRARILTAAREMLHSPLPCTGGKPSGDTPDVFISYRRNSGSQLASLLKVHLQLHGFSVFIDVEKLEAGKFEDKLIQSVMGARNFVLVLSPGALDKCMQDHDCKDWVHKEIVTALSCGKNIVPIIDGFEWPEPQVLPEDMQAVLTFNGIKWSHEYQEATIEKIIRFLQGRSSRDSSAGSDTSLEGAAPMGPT

SMILES | IC50 [µM]
N#CCCc1nc(Cc2ccncc2)c[nH]1 [Example 4, 3-(4-(Pyridin-4-ylmethyl)-1H-imidazol-2-yl)propanenitrile] | 1 to 10

Same assay, conditions: 40 nM human SARM1(50-724), 0.3 mM NMN, 20 μM NAD, 60 minutes at room temperature; class symbols; read-out: Average IC50

IC50 [µM] | SMILES
1 to 10 | ON=C(c1ncc(Cc2ccncc2)[nH]1)C(F)(F)F (mixture of isomers) [Example 13, (E/Z)-2,2,2-Trifluoro-1-(5-(pyridin-4-ylmethyl)-1H-imidazol-2-yl)ethan-1-one oxime]
< 1 | CC(c1ccncc1)c1c[nH]c(CC(F)(F)F)n1 (racemic) [Example 5, (rac)-4-(1-(2-(2,2,2-Trifluoroethyl)-1H-imidazol-4-yl)ethyl)pyridine]
1 to 10 | CC(c1ccncc1)c1ccc(CC(F)(F)F)[nH]1 (racemic) [Example 11, (rac)-4-(1-(5-(2,2,2-Trifluoroethyl)-1H-pyrrol-2-yl)ethyl)pyridine]
10 to 100 | Cc1cnccc1Cc1c[nH]c(C(O)c2cncs2)n1 (racemic) [Example 21, (rac)-(5-((3-Methylpyridin-4-yl)methyl)-1H-imidazol-2-yl)(thiazol-5-yl)methanol]
< 1 | OC(c1nc(Cc2ccncc2Cl)c[nH]1)C(F)(F)F (racemic) [Example 23, (rac)-1-(4-((3-Chloropyridin-4-yl)methyl)-1H-imidazol-2-yl)-2,2,2-trifluoroethan-1-ol]
1 to 10 | OC(c1ccccn1)c1ncc(Cc2ccncc2)[nH]1 (racemic) [Example 35, (rac)-Pyridin-2-yl(5-(pyridin-4-ylmethyl)-1H-imidazol-2-yl)methanol]
1 to 10 | CC(O)(c1nc(Cc2ccncc2)c[nH]1)C(F)(F)F (racemic) [Example 40, (rac)-1,1,1-Trifluoro-2-(4-(pyridin-4-ylmethyl)-1H-imidazol-2-yl)propan-2-ol]
< 1 | C[C@@H](c1ccncc1)c1c[nH]c(CC(F)(F)F)n1 (single isomer, unassigned) [Example 5a]
1 to 10 | C[C@H](c1ccncc1)c1c[nH]c(CC(F)(F)F)n1 (single isomer, unassigned) [Example 5b]
< 1 | O[C@@H](c1ncc(Cc2ccncc2)[nH]1)C(F)(F)F (single isomer, unassigned) [Example 7]
< 1 | O[C@H](c1ncc(Cc2ccncc2)[nH]1)C(F)(F)F (single isomer, unassigned) [Example 7a]
1 to 10 | NC(c1nc(Cc2ccncc2)c[nH]1)C(F)(F)F (single isomer, unassigned) [Example 15]
< 1 | N[C@H](c1nc(Cc2ccncc2)c[nH]1)C(F)(F)F (single isomer, unassigned) [Example 15a]
1 to 10 | CNC(c1ncc(Cc2ccncc2)[nH]1)C(F)(F)F (single isomer, unassigned) [Example 16]
1 to 10 | CN[C@H](c1ncc(Cc2ccncc2)[nH]1)C(F)(F)F (single isomer, unassigned) [Example 16a]
10 to 100 | CN(C)C(c1ncc(Cc2ccncc2)[nH]1)C(F)(F)F (single isomer, unassigned) [Example 17]
1 to 10 | CN(C)[C@H](c1ncc(Cc2ccncc2)[nH]1)C(F)(F)F (single isomer, unassigned) [Example 17a]
10 to 100 | NC(c1nc(Cc2ccncc2)cs1)C(F)(F)F (single isomer, unassigned) [Example 19]
1 to 10 | OC(c1nc(Cc2ccncc2)c[nH]1)c1cncs1 (single isomer, unassigned) [Example 20]
< 1 | O[C@H](c1nc(Cc2ccncc2)c[nH]1)c1cncs1 (single isomer, unassigned) [Example 20a]
< 1 | C[C@@H](c1ccncc1)c1c[nH]c([C@H](O)C(F)(F)F)n1 (single isomer, unassigned) [Example 24]
10 to 100 | C[C@H](c1ccncc1)c1c[nH]c([C@@H](O)C(F)(F)F)n1 (single isomer, unassigned) [Example 24a]

IC50 [µM] | SMILES
< 1 | C[C@H](c1ccncc1)c1c[nH]c([C@H](O)C(F)(F)F)n1 (single isomer, unassigned) [Example 24b]
10 to 100 | OC(c1ncc(Cc2ccncc2)[nH]1)(c1cncs1)C(F)(F)F (single isomer, unassigned) [Example 26]
< 1 | O[C@](c1ncc(Cc2ccncc2)[nH]1)(c1cncs1)C(F)(F)F (single isomer, unassigned) [Example 26a]
10 to 100 | Cc1cnccc1Cc1cnc([C@H](O)c2cncs2)[nH]1 (single isomer, unassigned) [Example 30]
1 to 10 | Cc1cnccc1Cc1cnc([C@@H](O)c2cncs2)[nH]1 (single isomer, unassigned) [Example 30a]
1 to 10 | O[C@@H](c1ncc(Cc2ccncc2)[nH]1)c1nccs1 (single isomer, unassigned) [Example 31a]
< 1 | C[C@@](O)(c1ncc(Cc2ccncc2)[nH]1)C(F)(F)F (single isomer, unassigned) [Example 32]
1 to 10 | C[C@](O)(c1ncc(Cc2ccncc2)[nH]1)C(F)(F)F (single isomer, unassigned) [Example 32a]
1 to 10 | CO[C@@H](c1ncc(Cc2ccncc2)[nH]1)C(F)(F)F (single isomer, unassigned) [Example 33]
1 to 10 | COC(c1ncc(Cc2ccncc2)[nH]1)C(F)(F)F (single isomer, unassigned) [Example 33a]
1 to 10 | Cc1cnccc1Cc1c[nH]c(C(O)C(F)(F)F)n1 (single isomer, unassigned) [Example 37]
< 1 | Cc1cnccc1Cc1c[nH]c([C@@H](O)C(F)(F)F)n1 (single isomer, unassigned) [Example 37a]
< 1 | O[C@@H](c1nc(Cc2ccncc2F)c[nH]1)C(F)(F)F (single isomer, unassigned) [Example 38]
1 to 10 | O[C@H](c1nc(Cc2ccncc2F)c[nH]1)C(F)(F)F (single isomer, unassigned) [Example 38a]
1 to 10 | FC(F)(F)CCc1nc(Cc2ccncc2)c[nH]1 [Example 2, 4-((2-(3,3,3-trifluoropropyl)-1H-imidazol-4-yl)methyl)pyridine]
10 to 100 | FC(F)(F)Cc1nc(Cc2ccncc2)n[nH]1 [Example 8, 4-((5-(2,2,2-Trifluoroethyl)-1H-1,2,4-triazol-3-yl)methyl)pyridine]
1 to 10 | FC(F)(F)Cc1csc(Cc2ccncc2)n1 [Example 9, 2-(Pyridin-4-ylmethyl)-4-(2,2,2-trifluoroethyl)thiazole]
1 to 10 | FC(F)(F)Cc1nc(Cc2ccncc2)cs1 [Example 10, 4-(Pyridin-4-ylmethyl)-2-(2,2,2-trifluoroethyl)thiazole]
10 to 100 | Cc1[nH]c(CC(F)(F)F)nc1Cc1ccncc1 [Example 14, 4-((5-Methyl-2-(2,2,2-trifluoroethyl)-1H-imidazol-4-yl)methyl)pyridine]
1 to 10 | N[C@@H](c1nc(Cc2ccncc2)cs1)C(F)(F)F [Example 19a]
10 to 100 | FC(F)(F)Cc1ncc(Cc2c(Cl)cncc2Cl)[nH]1 [Example 22, 3,5-Dichloro-4-((2-(2,2,2-trifluoroethyl)-1H-imidazol-5-yl)methyl)pyridine]
< 1 | Cc1cnccc1Cc1c[nH]c(CC(F)(F)F)n1 [Example 25, 3-Methyl-4-((2-(2,2,2-trifluoroethyl)-1H-imidazol-4-yl)methyl)pyridine]

SMILES | IC50 [µM]
FC(F)(F)Cc1nc(Cc2ccncc2)c[nH]1 [Example 1, 4-((2-(2,2,2-Trifluoroethyl)-1H-imidazol-4-yl)methyl)pyridine] | < 1
N#CCc1nc(Cc2ccncc2)c[nH]1 [Example 3, 2-(4-(Pyridin-4-ylmethyl)-1H-imidazol-2-yl)acetonitrile] | < 1
c1cc(Cc2c[nH]c(Cc3cncs3)n2)ccn1 [Example 6, 5-((4-(Pyridin-4-ylmethyl)-1H-imidazol-2-yl)methyl)thiazole] | < 1
O=C(c1ncc(Cc2ccncc2)[nH]1)C(F)(F)F [Example 12, 2,2,2-Trifluoro-1-(5-(pyridin-4-ylmethyl)-1H-imidazol-2-yl)ethan-1-one hydrochloride] | < 1
FC(F)(F)Cc1nc(Cc2ccncc2Cl)c[nH]1 [Example 27, 3-Chloro-4-((2-(2,2,2-trifluoroethyl)-1H-imidazol-4-yl)methyl)pyridine] | < 1

Same assay, conditions: 40 nM human SARM1(50-724), 0.3 mM NMN, 20 μM NAD, 60 minutes at room temperature; given as numeric bound; read-out: Average IC50

IC50 [µM] | SMILES
> 50 | C[C@@H](c1ccncc1)c1c[nH]c([C@@H](O)C(F)(F)F)n1 (single isomer, unassigned) [Example 24c]
> 50 | O[C@H](c1ncc(Cc2ccncc2)[nH]1)c1nccs1 (single isomer, unassigned) [Example 31]
> 100 | O[C@H](c1ncc(Cc2ccnc(F)c2)[nH]1)C(F)(F)F (single isomer, unassigned) [Example 34]
> 100 | O[C@@H](c1ncc(Cc2ccnc(F)c2)[nH]1)C(F)(F)F (single isomer, unassigned) [Example 34a]
> 50 | FC(F)(F)Cc1nc(Cc2ccnc(Cl)c2)c[nH]1 [Example 28, 2-Chloro-4-((2-(2,2,2-trifluoroethyl)-1H-imidazol-4-yl)methyl)pyridine]
> 50 | Fc1cc(Cc2c[nH]c(CC(F)(F)F)n2)ccn1 [Example 29, 2-Fluoro-4-((2-(2,2,2-trifluoroethyl)-3H-imidazol-4-yl)methyl)pyridine]

SMILES | IC50 [µM]
ON=C(c1nc(Cc2ccncc2)cs1)C(F)(F)F (mixture of isomers) [Example 18, (E/Z)-2,2,2-Trifluoro-1-(4-(pyridin-4-ylmethyl)thiazol-2-yl)ethan-1-one oxime] | > 100
